Assay results reported in patent publication US20240246932A1 (Merck Sharp & Dohme LLC, priority 2021, published 2024).

Biological target: human NaV 1.8 channels stably expressed in HEK 293 cells (Homo sapiens (Human), UniProt Q9Y5Y9)
Assay: Nav1.8 Qube automated patch-clamp assay
Type: cell-based
Details: human NaV1.8 in HEK 293 cells, whole-cell voltage clamp, room temperature; read-out: IC50 values (nM) for Examples in the Nav1.8 Qube Assay
Outline: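 Whole-cell voltage clamp at room temperature on HEK293 cells; from −90 mV, a 10 s 1 Hz train of 20 ms pulses to 10 mV (repolarising to −67 mV) was applied. Peak currents at pulses 1 and 10 gave resting- and inactivated-state inhibition; IC50 fitted by Hill equation. Internal CsF/CsCl buffer.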

Chain of human NaV 1.8 channels stably expressed in HEK 293 cells (Q9Y5Y9 whole entry): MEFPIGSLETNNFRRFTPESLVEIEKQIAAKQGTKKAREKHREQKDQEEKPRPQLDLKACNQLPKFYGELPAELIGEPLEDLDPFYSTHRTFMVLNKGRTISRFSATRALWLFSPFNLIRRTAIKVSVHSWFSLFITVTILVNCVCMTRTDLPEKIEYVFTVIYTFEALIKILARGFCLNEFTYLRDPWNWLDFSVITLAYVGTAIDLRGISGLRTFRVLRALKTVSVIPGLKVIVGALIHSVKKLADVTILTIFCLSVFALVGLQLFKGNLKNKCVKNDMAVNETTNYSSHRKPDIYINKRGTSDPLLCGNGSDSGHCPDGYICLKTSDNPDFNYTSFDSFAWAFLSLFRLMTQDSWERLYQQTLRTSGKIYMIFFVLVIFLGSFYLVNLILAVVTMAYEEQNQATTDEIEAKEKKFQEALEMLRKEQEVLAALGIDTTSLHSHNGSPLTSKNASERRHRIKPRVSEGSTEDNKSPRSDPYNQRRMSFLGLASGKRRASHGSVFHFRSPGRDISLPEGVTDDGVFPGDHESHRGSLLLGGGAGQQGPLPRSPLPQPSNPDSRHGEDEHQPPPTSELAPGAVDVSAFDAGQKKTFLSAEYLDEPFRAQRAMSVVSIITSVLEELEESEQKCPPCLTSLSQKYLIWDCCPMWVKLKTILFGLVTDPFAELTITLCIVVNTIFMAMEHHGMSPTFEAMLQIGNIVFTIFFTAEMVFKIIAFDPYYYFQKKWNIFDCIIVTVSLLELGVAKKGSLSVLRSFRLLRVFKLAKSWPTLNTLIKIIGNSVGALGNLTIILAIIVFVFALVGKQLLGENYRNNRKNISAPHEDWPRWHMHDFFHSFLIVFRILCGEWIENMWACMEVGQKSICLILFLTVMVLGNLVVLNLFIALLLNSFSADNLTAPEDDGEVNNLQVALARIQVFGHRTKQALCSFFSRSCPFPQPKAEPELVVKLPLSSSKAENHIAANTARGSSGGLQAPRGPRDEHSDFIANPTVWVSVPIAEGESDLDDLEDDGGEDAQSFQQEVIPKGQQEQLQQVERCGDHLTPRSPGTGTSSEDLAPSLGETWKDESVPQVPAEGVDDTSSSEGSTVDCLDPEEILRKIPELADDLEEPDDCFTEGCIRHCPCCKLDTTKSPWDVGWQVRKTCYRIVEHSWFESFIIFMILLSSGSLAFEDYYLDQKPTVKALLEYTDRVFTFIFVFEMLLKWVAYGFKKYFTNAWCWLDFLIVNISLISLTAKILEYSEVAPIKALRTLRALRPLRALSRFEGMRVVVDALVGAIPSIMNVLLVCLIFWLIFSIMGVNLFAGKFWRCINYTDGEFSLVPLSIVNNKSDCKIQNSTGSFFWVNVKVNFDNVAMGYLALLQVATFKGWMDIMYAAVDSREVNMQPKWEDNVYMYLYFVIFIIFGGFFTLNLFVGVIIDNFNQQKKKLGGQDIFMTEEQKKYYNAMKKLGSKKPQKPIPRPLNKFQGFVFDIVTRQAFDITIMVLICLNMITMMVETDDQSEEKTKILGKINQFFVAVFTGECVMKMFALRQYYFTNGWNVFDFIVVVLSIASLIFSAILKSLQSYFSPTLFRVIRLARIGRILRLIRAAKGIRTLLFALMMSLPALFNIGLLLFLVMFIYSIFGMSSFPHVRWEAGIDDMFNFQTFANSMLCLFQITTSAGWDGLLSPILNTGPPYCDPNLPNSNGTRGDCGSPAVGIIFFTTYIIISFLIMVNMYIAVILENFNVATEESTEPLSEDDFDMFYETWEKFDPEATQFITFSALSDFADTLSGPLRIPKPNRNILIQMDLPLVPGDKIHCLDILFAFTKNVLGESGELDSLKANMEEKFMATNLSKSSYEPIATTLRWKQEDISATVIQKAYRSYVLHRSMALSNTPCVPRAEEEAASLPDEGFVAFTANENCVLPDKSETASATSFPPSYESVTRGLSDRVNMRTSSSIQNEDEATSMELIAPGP

IC50	Compound
1.31 nM	C[C@@H]1C(=O)NCCN1C(=O)NC(c1ccc(OC(F)(F)F)c(F)c1)c1ccc(F)c(C(F)(F)F)n1 (single isomer, unassigned) [Example 56B, (2R)-N-((S or R)-(3-fluoro-4-(trifluoro-methoxy)phenyl)(5-fluoro-6-(trifluoro-methyl)pyridin-2-yl)methyl)-2-methyl-3-oxopiperazine-1-carboxamide]
129 nM	C[C@@H]1C(=O)NCCN1C(=O)NC(c1ccc(OC(F)(F)F)nc1)c1ccc(F)c(C(F)(F)F)n1 (single isomer, unassigned) [Example 51A, (2R)-N-((R or S)-(5-fluoro-6-(trifluoromethyl)pyridin-2-yl)(6-(trifluoro-methoxy)pyridin-3-yl)methyl)-2-methyl-3-oxopiperazine-1-carboxamide]
10.5 nM	CCC1C(=O)NCCN1C(=O)NC(c1ccc(C(F)(F)F)nc1)c1ccc(F)c(Cl)c1F (single isomer, unassigned) [Example 40B, N-((R or S)-(3-chloro-2,4-difluorophenyl)(6-(trifluoromethyl)pyridin-3-yl)methyl)-(S or R)-2-ethyl-3-oxopiperazine-1-carboxamide]
2020 nM	O=C1NCCN(C(=O)NC(c2cnc(C(F)(F)F)nc2)c2ccc(F)c(Cl)c2F)C1C1CC1 (single isomer, unassigned) [Example 41A, N-((R or S)-(3-chloro-2,4-difluorophenyl)(2-(trifluoromethyl)pyrimidin-5-yl)methyl)-(R or S)-2-cyclopropyl-3-oxopiperazine-1-carboxamide]

The next lines start with the compound.

Compound	IC50
O=C1NCCN(C(=O)NC(c2cnc(C(F)(F)F)c(F)c2)c2ccc(F)c(Cl)c2F)C1C1CC1 (single isomer, unassigned) [Example 37B, N-((R or S)-(3-chloro-2,4-difluorophenyl)(5-fluoro-6-(trifluoro-methyl)pyridin-3-yl)methyl)-(S or R)-2-cyclopropyl-3-oxopiperazine-1-carboxamide]	188 nM
C[C@@H]1C(=O)NCCN1C(=O)NC(c1ccc(C2CC2)nc1)c1ccc(F)c(Cl)c1F (single isomer, unassigned) [Example 33A, (2R)-N-((R or S)-(3-chloro-2,4-difluoro-phenyl)(6-cyclo-propylpyridin-3-yl)methyl)-2-methyl-3-oxopiperazine-1-carboxamide]	14.4 nM
C[C@@H]1C(=O)NCCN1C(=O)NC(c1ccc(C(F)(F)F)nc1)c1ccc(Cl)c(Cl)c1F (single isomer, unassigned) [Example 29A, (2R)-N-((R or S)-(3,4-dichloro-2-fluoro-phenyl)(6-(trifluoro-methyl)pyridin-3-yl)methyl)-2-methyl-3-oxopiperazine-1-carboxamide]	21.4 nM
C[C@@H]1C(=O)NCCN1C(=O)NC(c1ccc(OCC(F)(F)F)nc1)c1ccc(F)c(F)c1 (single isomer, unassigned) [Example 6B, (2R)-N-((S or R)-(3,4-difluorophenyl)(6-(2,2,2-trifluoro-ethoxy)pyridin-3-yl)methyl)-2-methyl-3-oxopiperazine-1-carboxamide]	128 nM
C[C@@H]1C(=O)NCCN1C(=O)NC(c1cnc(C(F)(F)F)c(Cl)c1)c1ccc(Cl)c(C#N)c1 (single isomer, unassigned) [Example 23B, (2R)-N-((S or R)-(4-chloro-3-cyano-phenyl)(5-chloro-6-(trifluoromethyl)pyridin-3-yl)methyl)-2-methyl-3-oxopiperazine-1-carboxamide]	6.06 nM
C[C@@H]1C(=O)NCCN1C(=O)NC(c1cnc(C(F)(F)F)c(F)c1)c1ccc(F)c(Cl)c1F (single isomer, unassigned) [Example 34, (2R)—N—((R or S)-(3-chloro-2,4-difluorophenyl)(5-fluoro-6-(trifluoromethyl)pyridin-3-yl)methyl)-2-methyl-3-oxopiperazine-1-carboxamide]	2.12 nM
